What was measured:
[1] = system: skin capillary permeability; experiment: Evans Blue skin permeability assay, intradermal VEGF, endostatin-treated mice; type: in vivo; conditions: FVB/NJ mice, i.p. for 4 days
Description: (§1) The antiangiogenic factor (endostatin) was injected intraperitoneally to FVB/NJ mice for 4 days. Immediately after the last injection, mice were anasthesized and received intravenous injection of 100 μl Evans Blue dye (1% in PBS). Subsequently, different amounts of VEGF165, VEGF121 or saline were injected intradermaly. After 20 minutes, mice were sacrificed and skin flap from the back was removed and photographed. Skin samples from the injection sites were excised and incubated in formamide for 5 days in order to extract the dye and O.D. was measured at 620 nm. […] Quantitative analysis of Evans Blue dye extravasation (FIG. 1) confirmed the lower skin capillary permeability of the antiangiogenic factor-treated mice and indicated the weak permeability-inducing effect of VEGF in these mice.

[2] = system: skin capillary permeability; experiment: Evans Blue skin permeability assay, intradermal PAF, endostatin-treated mice; type: in vivo; conditions: Nude mice
Description: as §1
In order to test if the effects of the antiangiogenic factor (endostatin) on vascular permeability is VEGF-specific, we have tested the effects of intradermal injection of platelet-activating factor (PAF) in Nude mice that were previously injected with the antiangiogenic factor and in control mice, as described above. […] Quantitative analysis of Evans Blue dye extravasation (FIG. 2) confirmed the lower skin capillary permeability of the antiangiogenic factor-treated mice compared with control and the lack of PAF-induced hyperpermeability in these mice. […]

[3] = system: Bovine capillary endothelial cells (BCE); experiment: In vitro diffusion of FITC-dextran through endothelial cell monolayer (Transwells); type: cell-based
Description: The effects of the antiangiogenic factor (endostatin) on skin vessel permeability in vivo were tested in an in vitro diffusion model designed to mimic blood vessel permeability. Bovine capillary endothelial cells (BCE) were seeded in collagen coated inserts of “Transwells” and grown to confluence. The antiangiogenic factor was added every 24 hours. Four days later the inserts were washed with BCE culture medium and the following tracers and permeability regulators were added to the inserts. Half of the inserts received 5 mg/ml FITC-labeled dextran 10 kDa and the other half received 5 mg/ml FITC-labeled dextran 70 kDa. In addition, some inserts received 50 ng/ml VEGF165 or 100 nM PAF. Control inserts received BCE culture medium with fluorescent tracers only. The fluorescence in the lower wells was measured after 10, 20, 30, 45 and 60 minutes by transferring the inserts into new wells.
In order to follow the kinetic of the diffusion process, the flow of the tracer was calculated as fluorescent counts per minute (FIGS. 5 and 6). […] In contrast, the flow in control cells was constant and was lower than that observed in PAF and VEGF165-treated cells.

[4] = system: Bovine capillary endothelial cells (BCE); experiment: Immunostaining of tight junction proteins in BCE, endostatin; type: cell-based
Description: Bovine capillary endothelial cells (BCE) were cultured in the presence of 0.2, 0.5 and 2 μg/ml human endostatin for three days. The cells were fixed and immunostained with anti-β-catenin, occludin, and ZO-1 antibodies (Zymed Laboratories, CA). The staining was developed using FITC-conjugated secondary antibodies and visualized under fluorescent microscopy. Immunostaining for β-catenin marked the cell borders and was more intense when two cells contacted each other. […] There was no difference in β-catenin staining between 0.5 and 2.0 μg/ml endostatin. […] Similar results were obtained with ZO-1 immunostaining. […] This is the first documentation of the effects of endostatin on tight junctions that may explain, in part, the mechanism of its antiangiogenic activities. Similar experiments were performed in which BCE were incubated in the presence and absence of 0.5 μg/ml endostatin for 3 days followed by stimulation with PAF for 20 minutes. The cells were fixed and immunostained with anti-α-catenin, occludin, and ZO-1 antibodies (Zymed Laboratories, CA), as described above.

[5] = system: histamine-induced local edema; experiment: Histamine-induced wheal and flare test; type: in vivo; conditions: humans receiving the factor
Description: Antiangiogenic treatment has entered into clinical trials recently. Molecules that are tested in phase 1 and 2 clinical trials include endostatin, angiostatin, TNP-470, thalidomide, anti-VEGF antibodies, PTK787, SU-5416, SU-6668 and others. […] Mice that received endostatin for several days had lower diffusion of Evans blue from the skin capillaries in response to intradermal VEGF and PAF injection compared with normal mice. The existing test of histamine-induced wheal and flare in skin can be used in order to test bioactivity of endostatin and other antiangiogenic factors. Intradermal injection of histamine leads to the formation of local adema ([…]) due to blood vessel hyperpermiability. […] This test will serve as an early surrogate marker for the bioactivity of endostatin and other antiangiogenic factors and help to determine the treatment's efficiency in individual patients.

lung tissue = experiment: Swelling of lung tissue induced by micro-encapsulated VEGF-producing cells; type: in vivo, Mice; conditions: VEGF producing cells together with endostatin producing cells, 0.5x10^6 encapsulated cells of each
Source text: Dilation of the lung tissue may result in lung dysfunction and development of pulmonary hypertension. Mice injected with micro-encapsulated cells producing VEGF (approximately 0.5×10^6 cells per mouse) developed thickened lung parenchyma 5 days after injection. At a higher magnification we observed generation of several cell layers between the alveoli compared with one layer of cells in mice injected with micro-encapsulated control cells or with micro-encapsulated cells producing endostatin (Endost). […] Moreover, treatment with endostatin reduced the number of cell layers between the alveoli and the lungs of mice that were treated with endostatin appeared similar to control mice. Therefore, endostatin appears to block the swelling of lung tissue and may be used for treatment of pulmonary hypertension.

skin vessel permeability [6] = experiment: Duration of exposure: Alzet pump endostatin, skin vessel permeability; type: in vivo, mice (SCID)
Description: In order to test if continuous exposure to the antiangiogenic factor (endostatin) is required to repress blood vessel permeability, mice (SCID) were anesthetized and “Alzet” pumps loaded with the antiangiogenic factor or saline were implanted intraperitoneally. The pumps release 1 μl the antiangiogenic factor per hour. Skin vessel permeability using Evans Blue dye was performed as described above. Saline and the antiangiogenic factor treated mice were examined 2, 3 and 4 days after pump implantation, as described above (FIG. 3). […] In both groups, PAF injection induced higher vessel permeability than saline injection. […] However, in both groups PAF injection induced higher vessel permeability than saline injection. […] Since the tumor vessels are continuously permeabilized and plasma proteins contained within the tumor support its vascularization the anti-permeability effect of the antiangiogenic factor offers a possible mechanism for its anti-tumor activity.

skin vessel permeability [7] = experiment: Miles vascular permeability assay (Example 3); type: in vivo, SCID mice
Description: SCID mice were injected subcutaneously (s.c.) with TNP-470 or HPMA copolymer-TNP-470 (30 mg/Kg TNP-equiv.) for three days, with Y27632 (50 nM s.c.) for 11 days, with angiostatin (200 mg/kg/day s.c.) for five days, or with saline (250 μl s.c.) for 5 days (n=12) prior to performing the Miles assay ([…] et al., 1996; Miles and Miles, 1952; Streit et al., 2000). Briefly, Evan's blue dye (100 μl of a 1% solution in 0.9% NaCl) was injected intravenously (i.v.) into mice. After 10 minutes, 50 μl of human VEGF165 (1 ng/μl), PAF (100 μM), CNF-1 (100 ng), histamine (1.2 μg/ml) or PBS (50 ul) were injected intradermally into the pre-shaved back skin. After 20 minutes, the animals were euthanized and an area of skin that included the blue spot resulting from leakage of the dye was removed. Evan's blue dye was extracted from the skin by incubation with formamide for 5 days at room temperature, and the absorbance of extracted dye was measured at 620 nm using a spectrophotometer. The unpaired Student t test was used for statistical analysis.

[8] = system: U87 glioblastoma tumor blood vessel permeability; experiment: Miles assay on tumor-bearing mice (Example 3), U87; parameters: species or system SCID mice; conditions: mouse, in vivo
Description: Female SCID mice ( 8 weeks, 20 g) were inoculated s.c. with 5×10^6 viable U87 glioblastoma cells or viable A2058 human melanoma cells or BXPC3 pancreas adenocarcinoma cells. Female nu/nu mice were inoculated with MCF-7 or MDA-MB-231 breast carcinoma cells in the mammary fat pad. C57B1/6J were inoculated with LLC. […] blue dye was then injected i.v. and extravasation of dye assessed as above. Also, blood was withdrawn to measure VPF/VEGF levels in plasma and in tumors (n=5 from each group). Tumors (n=5 per group) were dissected, weighed and cut in half. Half of the tumor was placed in formalin and half was analyzed for VPF/VEGF protein by ELISA (see below). Formalin fixed tumors were processed for sectioning and staining with H & E, CD31, smooth muscle actin (SMA) and proliferating cell nuclear antigen (PCNA) according to the manufacturers' instructions.

[9] = system: VEGF induced vessel permeability; experiment: Miles assay (Example 2), VEGF165 challenge; type: in vivo, mice
Description: One of the problems with angiogenesis-dependent diseases is increased vessel permeability (due to high levels of VPF) which results in edema and loss of proteins. A decrease in vessel permeability is beneficial in those diseases. […] Briefly, a dye, Evans Blue (1% in PBS), was injected i.v. to anesthesized mice. After 10 min, human recombinant VEGF165 (50 ng/50 μl) was injected intradermally into the back skin. Leakage of protein-bound dye was detected as blue spots on the underside of the back skin surrounding the injection site. After 20 min mice were euthanized. Then, the skin was excised, left in formamide for 5 days to be extracted and the solution read at 620 nm. Putative angiogenesis inhibitors such as free and conjugated TNP-470 were injected daily 3 days (30 mg/kg/day) prior to the VEGF challenge. The same was repeated on tumor-bearing mice to evaluate the effect of angiogenesis inhibitors on tumor vessel permeability.

endostatin
VEGF-induced hyperpermeability (Evans Blue extravasation) ([1]; intradermal VEGF165/VEGF121): minor induction of hyperpermeability | Evans Blue dye leakage from skin capillaries ([1]; vs control mice): overall lower dye leakage than the control | PAF-induced vascular permeability [2]: repressed | flow of the tracer (fluorescent counts per minute) ([3]; 10 kDa and 70 kDa dextrans): significant reduced flow | sum of fluorescent count over 60 minutes ([3]; BCE monolayer pre-treated 4 days, FITC-dextran 10 kDa and 70 kDa, vs control, VEGF165- and PAF-treated cells): significantly lower fluorescent counts | cell boundary β-catenin staining ([4]; 0.2 μg/ml, three days): intensified | PAF reduction of staining intensity of anti-α-catenin, occludin and ZO-1 ([4]; 0.5 μg/ml for 3 days, then PAF for 20 minutes): not in endostatin-treated cells | cell boundary β-catenin staining ([4]; 0.5 μg/ml, three days): further intensified | ZO-1 immunostaining ([4]; 0.2-2.0 μg/ml, three days): Cells boundaries were only visible | occludin immunostaining ([4]; 0.5 and 2.0 μg/ml, three days): cell boundaries were observed | zone of edema after intradermal histamine [5]: reduced zone of edema | lung tissue appearance (cell layers, extracellular matrix) (lung tissue): fewer cell layers and no accumulation of extracellular matrix | duration of treatment required to reduce skin vessel permeability (skin vessel permeability [6]; SCID mice, intraperitoneal Alzet pump): at least 3 days | blood vessel permeability in response to PAF injection vs saline treated mice (skin vessel permeability [6]; day two after pump implantation): no significant difference

C[C@@H](N)[C@H]1CC[C@H](C(=O)Nc2ccncc2)CC1 [Y27632]
CNF-1-induced Evan's blue-albumin extravasation (skin vessel permeability [7]; CNF-1 intradermal): inhibited | effect on VPF/VEGF-induced vessel permeability (skin vessel permeability [7]; VPF/VEGF intradermal): inhibited

angiostatin
Evan's blue extravasation into U87 glioblastomas [8]: did not inhibit | decrease of PAF-induced permeability (skin vessel permeability [7]; PAF intradermal): 37% | inhibition of Evan's blue dye extravasation from VPF/VEGF injection sites (skin vessel permeability [7]; VPF/VEGF intradermal): 40% | decrease of histamine-induced permeability (skin vessel permeability [7]; histamine intradermal): 51%

O=C1CCC(N2C(=O)c3ccccc3C2=O)C(=O)N1 (stereo not shown) [Thalidomide]
effect on VPF/VEGF-induced vessel permeability (skin vessel permeability [7]; VPF/VEGF intradermal): no significant effect | effect on VEGF induced vessel permeability [9]: no effect

Source: patent US20050203013A1, “Methods for inhibiting vascular permeability” (priority 2002, published 2005)
